Measurements published in patent publication US20240000942A1, “Craniofacial implant made of polyether ether ketone (PEEK) with deposits to store and release active substances or active Ingredient” (Arcosystem SPA, priority 2022, published 2024).
Values joined by “and” are separate entries in the source; they are usually repeats but may differ in a detail not shown here. Identical values can stand only once. “Also recorded” adds a separate entry of the source.

Assay: Stability of the vancomycin solution within the implant reservoir (HPLC)
Type: physicochemical
Experimental: For this, a time zero (To) sample corresponding to a sample that was immediately analyzed after its reconstitution was analyzed, along with a sample that was left to rest for 24 hours within the implant. In this way, results from the 24 hour time frame were compared with those of time zero as sample areas and degradation percentage at 24 hours.
Shaking up to the complete solution of the lyophilized powder, taking 0.5 mL of said ampule, and diluted with physiological saline solution up to 5 mL of final volume. This 5 mL of solution is injected in the reservoir of the implant. […] Said 0.5 mL were diluted up to 5 mL of final volume using 0.2M potassium dibasic phosphate buffer adjusted to pH 7.4. Then, using a syringe, said volume was loaded in the reservoir or capsule of the implant, the implant was then sealed and incorporated in an empty beaker. Nominal concentration of the solution within the reservoir is […].
After 24 hours, the chamber or reservoir was opened to extract the 0.5 mL of the solution contained within. Of said 0.5 mL extracted from the reservoir, a 0.1 mL aliquot is taken that then is transferred to a 100 mL flask for its analysis using HPLC, considering the same calibration and standard curves that were described for the previous example.

**Q.** With `CN[C@H](CC(C)C)C(=O)N[C@H]1C(=O)N[C@@H](CC(N)=O)C(=O)N[C@H]2C(=O)N[C@H]3C(=O)N[C@H](C(=O)N[C@H](C(=O)O)c4cc(O)cc(O)c4-c4cc3ccc4O)[C@H](O)c3ccc(c(Cl)c3)Oc3cc2cc(c3O[C@@H]2O[C@H](CO)[C@@H](O)[C@H](O)[C@H]2O[C@H]2C[C@](C)(N)[C@H](O)[C@H](C)O2)Oc2ccc(cc2Cl)[C@H]1O` [vancomycin] as the compound, how does the HPLC sample area (24 hour period within the implant) read?
**A.** 94679 and 94744

**Q.** What about the HPLC sample area (24 hour period within the implant, mean) of the same compound?
**A.** 94711.5

**Q.** What about the “degradation of vancomycin within the implant (in words)” value (24 hours) of the same compound?
**A.** not significant; also recorded: no indication of significative degradation

**Q.** What about the HPLC sample area (Time 0 (analyzed immediately after reconstitution)) of the same compound?
**A.** 948050 and 948671

**Q.** What about the HPLC sample area (Time 0 (analyzed immediately after reconstitution), mean) of the same compound?
**A.** 948360.5
